Assay results reported in patent US20160237059A1, “HETEROCYCLIC SUBSTITUTED TRIFLUOROMETHYL PYRIMIDINONES AND THEIR USE” (BAYER PHARMA AKTIENGESELLSCHAFT, priority 2013, published 2016).
Structures can show the parent of a compound that is named as a salt.

Experiments:
Assay type in all cases: cell-based
human CCR2 = target: T1, human CCR2 (Homo sapiens, UniProt P41597); test: Functional Ca2+ release test (B-1); settings: Chem-1 cell line transfected with human CCR2; 50% inhibition of the MCP-1 effect, MCP-1 at EC50 (about 5 nM); in some cases means of several determinations
T1 construct: host or cells: Chem-1 cell line
T1 sequence (P41597 1-360 isoform P41597-2): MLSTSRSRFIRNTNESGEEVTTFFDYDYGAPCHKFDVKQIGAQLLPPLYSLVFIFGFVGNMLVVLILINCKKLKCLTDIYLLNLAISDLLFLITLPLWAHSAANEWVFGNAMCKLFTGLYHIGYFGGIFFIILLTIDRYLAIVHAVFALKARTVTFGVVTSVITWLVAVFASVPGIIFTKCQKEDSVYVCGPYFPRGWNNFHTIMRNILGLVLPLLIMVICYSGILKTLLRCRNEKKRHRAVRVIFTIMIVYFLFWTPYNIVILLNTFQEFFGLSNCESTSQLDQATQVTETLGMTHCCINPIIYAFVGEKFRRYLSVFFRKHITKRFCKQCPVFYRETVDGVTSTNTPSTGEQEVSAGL
Outline: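 Chem-1 cells expressing human CCR2, loaded with Fluo-4 for 60 min at 37° C, were preincubated 10 min with compound (10-point, 1:3.16 dilutions), then stimulated with MCP-1 at its predetermined EC50 (about 5 nM). Ca2+ release was monitored for 120 s. IC50 came from a 4-parameter Hill fit.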

murine CCR2 [1] = target: T2, murine CCR2 (Mus musculus, UniProt P51683); test: Functional β-arrestin recruiting test with human MCP-1 (B-2a); settings: U2OS β-arrestin cell line transfected with murine CCR2; agonist human MCP-1 at EC50 (about 3 nM); in some cases means of several determinations
T2 construct: host or cells: U2OS β-arrestin cell line
Protocol: The antagonistic action of test substances on CCR2 was determined in a β-arrestin test. The PathHunter β-arrestin GPCR test system (DiscoveRx Corporation, Ltd.) is a cell-based functional method for detecting binding of β-arrestin to an activated receptor. The molecular basis is a […] complementation measured by the enzymatic conversion of a chemiluminescent substrate. The test cell used was a U2OS β-arrestin cell line transfected with murine CCR2 (93-0543C3, DiscoveRx Corporation, Ltd.).
The test substances were dissolved in dimethyl sulphoxide (DMSO) at a concentration of 10 mM and serially diluted with DMSO in steps of 1:3.16 for a 10-point dose/activity analysis. According to the desired test concentrations, the substances were pre-diluted in Tyrode with 2 mM CaCl2 and 0.05% BSA.
The cells, cultivated in MEM Eagle (supplemented with 10% FCS, 50 U/ml of penicillin, 50 μg/ml of streptomycin, 250 μg/ml of hygromycin and 500 μg/ml of geniticin), were sown at 2000 cells/25 μl in 384 well, μCLEAR/black cell culture plates from Greiner (#781092) and incubated at 37° C. for 24 h. The sowing medium consisted of Opti-MEM (supplemented with 1% FCS, 50 U/ml of penicillin and 50 μg/ml of streptomycin). The cells were pre-incubated for 10 min with 10 μl of the test substances diluted in buffer, and 10 μl of agonist solution [human MCP-1 (PeproTech, #300-04) in Tyrode with 0.05% BSA) were then added. The human MCP-1 was employed at the concentration which corresponds to the EC50 which had been determined in a preliminary test (usually about 3 nM). After 90 min of incubation at 37° C., the solution was removed, and recruitment of β-arrestin to CCR2 was detected with the aid of the PathHunter detection reagent (93-001, DiscoveRx Corporation, Ltd.) according to the instructions of the manufacturer. Luminescence was measured after an incubation time of 60 min using a proprietary luminescence imaging measuring instrument. The molar concentration of the test substance which caused 50% inhibition of the MCP-1 effect (IC50) was determined using a 4-parameter logistic function (Hill function).

murine CCR2 [2] = target: T2, murine CCR2; test: Functional β-arrestin recruiting test with murine MCP-1 (B-2b); settings: U2OS β-arrestin cell line transfected with murine CCR2; agonist murine MCP-1; in some cases means of several determinations
Outline: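 In a PathHunter β-galactosidase complementation assay, U2OS cells expressing murine CCR2 were preincubated 10 min with compound (10-point, 1:3.16 dilutions), then challenged with murine MCP-1 at its predetermined EC50 for 90 min at 37 °C. Luminescence was read after 60 min, and IC50 was fitted with a 4-parameter Hill function.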

T2 sequence (P51683 whole entry): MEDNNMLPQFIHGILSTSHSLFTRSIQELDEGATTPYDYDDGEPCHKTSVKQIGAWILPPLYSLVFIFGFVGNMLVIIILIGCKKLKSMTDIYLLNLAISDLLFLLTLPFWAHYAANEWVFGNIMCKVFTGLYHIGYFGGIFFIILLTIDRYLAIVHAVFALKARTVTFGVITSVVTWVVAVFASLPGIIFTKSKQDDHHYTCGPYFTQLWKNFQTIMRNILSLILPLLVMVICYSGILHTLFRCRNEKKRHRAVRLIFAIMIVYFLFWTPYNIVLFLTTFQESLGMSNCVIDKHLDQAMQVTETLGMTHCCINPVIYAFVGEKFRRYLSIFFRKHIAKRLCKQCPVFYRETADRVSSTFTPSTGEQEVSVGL

IC50 (human CCR2) [µM] | IC50 (murine CCR2 [1]) [µM] | IC50 (murine CCR2 [2]) [µM] | SMILES
0.012 | 0.38 | – | O=c1[nH]c(-c2cccc(Cl)n2)nc(C(F)(F)F)c1Cc1ccc(Cl)c(Cl)c1 [Example 20, 2-(6-chloropyridin-2-yl)-5-(3,4-dichlorobenzyl)-6-(trifluoromethyl)pyrimidin-4(3H)-one]
0.046 | 0.65 | – | O=c1[nH]c(-c2cc(O)ccn2)nc(C(F)(F)F)c1Oc1ccc(Cl)c(C(F)(F)F)c1 [Example 33, 5-[4-chloro-3-(trifluoromethyl)phenoxy]-2-(4-hydroxypyridin-2-yl)-6-(trifluoromethyl)pyrimidin-4(3H)-one]
0.0044 | 0.11 | – | Cc1cc(-c2nc(C(F)(F)F)c(Cc3ccc(Cl)c(Cl)c3)c(=O)[nH]2)nn1C [Example 55, 5-(3,4-dichlorobenzyl)-2-(1,5-dimethyl-1H-pyrazol-3-yl)-6-(trifluoromethyl)pyrimidin-4(3H)-one]
0.022 | 0.27 | – | Cc1noc(Cc2nc(C(F)(F)F)c(Cc3ccc(Cl)c(Cl)c3)c(=O)[nH]2)n1 [Example 91, 5-(3,4-Dichlorobenzyl)-2-[(3-methyl-1,2,4-oxadiazol-5-yl)methyl]-6-(trifluoromethyl)pyrimidin-4(3H)-one]
0.019 | 0.15 | – | O=c1[nH]c(-c2noc(C3CC3)n2)nc(C(F)(F)F)c1Oc1ccc(Cl)c(Cl)c1 [Example 82, 2-(5-cyclopropyl-1,2,4-oxadiazol-3-yl)-5-(3,4-dichlorophenoxy)-6-(trifluoromethyl)pyrimidin-4(3H)-one x N,N-diisopropylethylamine]
0.032 | 0.16 | – | CC(C)c1nc(-c2nc(C(F)(F)F)c(Oc3ccc(Cl)c(Cl)c3)c(=O)[nH]2)no1 [Example 80, 5-(3,4-Dichlorophenoxy)-2-[5-(propan-2-yl)-1,2,4-oxadiazol-3-yl]-6-(trifluoromethyl)pyrimidin-4(3H)-one x N,N-diisopropylethylamine]
0.027 | 0.38 | – | O=C1OCCN1c1nc(C(F)(F)F)c(Cc2ccc(Cl)c(Cl)c2)c(=O)[nH]1 [Example 112, 5-(3,4-Dichlorobenzyl)-2-(2-oxo-1,3-oxazolidin-3-yl)-6-(trifluoromethyl)pyrimidin-4(3H)-one]
0.0048 | 0.15 | – | O=c1[nH]c(-c2ncc(C(F)(F)F)cc2Cl)nc(C(F)(F)F)c1Oc1ccc(Cl)c(Cl)c1 [Example 6, 2-[3-chloro-5-(trifluoromethyl)pyridin-2-yl]-5-(3,4-dichlorophenoxy)-6-(trifluoromethyl)pyrimidin-4(3H)-one]
0.028 | 0.23 | – | O=c1[nH]c(-c2ncc(C(F)(F)F)cc2Cl)nc(C(F)(F)F)c1Cc1ccc(Cl)c(Cl)c1 [Example 21, 2-[3-chloro-5-(trifluoromethyl)pyridin-2-yl]-5-(3,4-dichlorobenzyl)-6-(trifluoromethyl)pyrimidin-4(3H)-one]
0.11 | 0.14 | – | Nc1[nH]ncc1-c1nc(C(F)(F)F)c(Oc2ccc(Cl)c(Cl)c2)c(=O)[nH]1 [Example 62, 2-(5-amino-1H-pyrazol-4-yl)-5-(3,4-dichlorophenoxy)-6-(trifluoromethyl)pyrimidin-4(3H)-one trifluoroacetate]
0.016 | – | 0.334 | Cn1nc(-c2nc(C(F)(F)F)c(Oc3ccc(Cl)c(C(F)(F)F)c3)c(=O)[nH]2)c2ccccc21 [Example 137, 5-[4-chloro-3-(trifluoromethyl)phenoxy]-2-(1-methyl-1H-indazol-3-yl)-6-(trifluoromethyl)pyrimidin-4(3H)-one]
0.0026 | – | 0.089 | O=c1[nH]c(-c2nscc2O)nc(C(F)(F)F)c1Oc1ccc(Cl)c(C(F)(F)F)c1 [Example 239]

The next lines start with the compound.

SMILES | IC50 (human CCR2) [µM] | IC50 (murine CCR2 [1]) [µM] | IC50 (murine CCR2 [2]) [µM]
O=c1[nH]c(-c2cc[nH]n2)nc(C(F)(F)F)c1Cc1ccc(Cl)c(Cl)c1 [Example 50, 5-(3,4-dichlorobenzyl)-2-(1H-pyrazol-3-yl)-6-(trifluoromethyl)pyrimidin-4(3H)-one] | 0.0002 | 0.0047 | –
O=c1[nH]c(-c2ccc3ccccc3n2)nc(C(F)(F)F)c1Oc1ccc(Cl)c(Cl)c1 [Example 178] | 0.033 | 0.535 | –
O=c1[nH]c(-c2nc(C(F)(F)F)c(Oc3ccc(Cl)c(Cl)c3)c(=O)[nH]2)ns1 [Example 86, 5-(3,4-Dichlorophenoxy)-2-(5-oxo-4,5-dihydro-1,2,4-thiadiazol-3-yl)-6-(trifluoromethyl)pyrimidin-4(3H)-one] | 0.0077 | 0.1 | –
O=c1[nH]c(-c2cc[nH]n2)nc(C(F)(F)F)c1Cc1ccc(Cl)c(C(F)(F)F)c1 [Example 72, 5-[4-chloro-3-(trifluoromethyl)benzyl]-2-(1H-pyrazol-3-yl)-6-(trifluoromethyl)pyrimidin-4(3H)-one] | 0.0007 | 0.019 | –
Cn1ncc(-c2nc(C(F)(F)F)c(Oc3ccc(Cl)c(C(F)(F)F)c3)c(=O)[nH]2)c1N [Example 67, 2-(5-amino-1-methyl-1H-pyrazol-4-yl)-5-[4-chloro-3-(trifluoromethyl)phenoxy]-6-(trifluoromethyl)pyrimidin-4(3H)-one] | 0.0083 | 0.15 | –
O=c1[nH]c(-c2cccc(O)n2)nc(C(F)(F)F)c1Oc1ccc(Cl)c(C(F)(F)F)c1 [Example 30, 5-[4-chloro-3-(trifluoromethyl)phenoxy]-2-(6-hydroxypyridin-2-yl)-6-(trifluoromethyl)pyrimidin-4(3H)-one] | 0.14 | 0.53 | –
O=c1[nH]c(-c2ccncc2)nc(C(F)(F)F)c1Cc1ccc(Cl)c(Cl)c1 [Example 28, 5-(3,4-dichlorobenzyl)-2-(pyridin-4-yl)-6-(trifluoromethyl)pyrimidin-4(3H)-one] | 0.049 | 1 | –
O=c1[nH]c(Cc2ccncc2)nc(C(F)(F)F)c1Cc1ccc(Cl)c(Cl)c1 [Example 93, 5-(3,4-dichlorobenzyl)-2-(pyridin-4-ylmethyl)-6-(trifluoromethyl)pyrimidin-4(3H)-one] | 0.083 | 0.37 | –
Cc1ccc(-c2nc(C(F)(F)F)c(Cc3ccc(Cl)c(Cl)c3)c(=O)[nH]2)nc1 [Example 19] | 0.0097 | 0.3 | –
O=c1[nH]c(Nc2cn[nH]c2)nc(C(F)(F)F)c1Cc1ccc(Cl)c(C(F)(F)F)c1 [Example 105] | 0.041 | 0.38 | –
O=c1[nH]c(-c2cccc(O)n2)nc(C(F)(F)F)c1Oc1ccc(Cl)c(Cl)c1 [Example 31, 5-(3,4-dichlorophenoxy)-2-(6-hydroxypyridin-2-yl)-6-(trifluoromethyl)pyrimidin-4(3H)-one] | 0.15 | 1.4 | –
COc1ccc(-c2nc(C(F)(F)F)c(Oc3ccc(Cl)c(C(F)(F)F)c3)c(=O)[nH]2)nc1 [Example 119, 5-[4-chloro-3-(trifluoromethyl)phenoxy]-2-(5-methoxypyridin-2-yl)-6-(trifluoromethyl)pyrimidin-4(3H)-one] | 0.0004 | – | 0.185
O=c1[nH]c(-c2cnccn2)nc(C(F)(F)F)c1Oc1ccc(Cl)c(C(F)(F)F)c1 [Example 132, 5-[4-chloro-3-(trifluoromethyl)phenoxy]-2-(pyrazin-2-yl)-6-(trifluoromethyl)pyrimidin-4(3H)-one] | 0.0038 | – | 0.259
CCc1cc(-c2nc(C(F)(F)F)c(Oc3ccc(Cl)c(C(F)(F)F)c3)c(=O)[nH]2)no1 [Example 217] | 0.0018 | – | 0.874
